In publication PMC5424146, “Activity-based protein profiling as a robust method for enzyme identification and screening in extremophilic Archaea” (Nature Communications, 2017):

Experiments:
[1] = molecular target: T1, esterase/lipase Saci_1105 (1105) (Sulfolobus acidocaldarius, UniProt Q4J9S2); experiment: biochemical
T1 construct: full gene under the maltose promoter (pSVAmZ-saci_1105) in S. acidocaldarius esterase double knockout; crude lysate or living cells

[2] = molecular target: T2, acetylesterase Saci_1116 (1116) (Sulfolobus acidocaldarius, UniProt Q4J9R2); experiment: esterase activity, pNP-octanoate hydrolysis at […] nm, lysate of delta […] strain; format: biochemical; conditions: pNP-octanoate 0.5 mM; pH 8.0; 35 °C; pre-incubation 1 h at 60 °C; covalent
T2 construct: full gene under the maltose promoter (pSVA-saci_1116) in the esterase double knockout, or native protein in the delta 1105 strain
T2 sequence (Q4J9R2 1-305): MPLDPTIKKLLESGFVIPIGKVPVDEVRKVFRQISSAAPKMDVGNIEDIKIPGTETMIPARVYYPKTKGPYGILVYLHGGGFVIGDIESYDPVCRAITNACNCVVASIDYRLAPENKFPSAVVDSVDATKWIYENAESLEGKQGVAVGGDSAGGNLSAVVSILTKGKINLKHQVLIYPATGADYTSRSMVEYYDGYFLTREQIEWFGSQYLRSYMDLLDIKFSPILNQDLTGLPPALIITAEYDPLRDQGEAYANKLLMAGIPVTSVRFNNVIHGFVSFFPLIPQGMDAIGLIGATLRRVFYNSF

[3] = molecular target: T3, TM_1022 (Thermotoga maritima, UniProt G4FEX6); experiment: esterase activity, pNP-octanoate hydrolysis, lysate of double knockout expressing TM_[…]; also competitive labelling at […]; format: biochemical; conditions: pNP-octanoate 0.5 mM; pH 8.0; 35 °C; pre-incubation 1 h at 60 °C; covalent
T3 construct: gene with own promoter (about 500 bp upstream; pSVA-p-tm1022) in S. acidocaldarius esterase double knockout
T3 sequence (G4FEX6 1-253): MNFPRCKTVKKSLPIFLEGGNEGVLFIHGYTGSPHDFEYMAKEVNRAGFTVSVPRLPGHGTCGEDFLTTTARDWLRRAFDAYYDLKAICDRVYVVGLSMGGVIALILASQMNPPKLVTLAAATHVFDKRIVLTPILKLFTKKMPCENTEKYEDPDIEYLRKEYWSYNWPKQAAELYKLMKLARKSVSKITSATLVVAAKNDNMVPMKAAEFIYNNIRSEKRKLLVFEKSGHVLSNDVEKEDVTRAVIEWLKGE

[4] = molecular target: T3, TM_1022; experiment: halo on indicator plate, double knockout expressing TM_[…]; format: cell-based; conditions: 1% (v/v) in plate; 78 °C; up to 3 days

T1 sequence (Q4J9S2 1-306): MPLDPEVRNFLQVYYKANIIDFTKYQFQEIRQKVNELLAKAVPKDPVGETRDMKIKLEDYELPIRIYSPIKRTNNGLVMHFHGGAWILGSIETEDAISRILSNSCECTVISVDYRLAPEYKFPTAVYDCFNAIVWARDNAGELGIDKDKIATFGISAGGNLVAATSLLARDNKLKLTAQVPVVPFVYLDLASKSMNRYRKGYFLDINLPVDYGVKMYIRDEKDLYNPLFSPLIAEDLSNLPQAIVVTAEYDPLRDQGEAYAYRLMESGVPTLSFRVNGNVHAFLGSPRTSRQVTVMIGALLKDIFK

Structure (SMILES): C#CCNC(=O)OCCOCCOCCOCCP(=O)(OCC)Oc1ccc([N+](=O)[O-])cc1 (centres unmarked) [compound 2, NP≡]
- IC50 [1]: 0.15 µM

Structure (SMILES): CCOP(=O)(OCC)Oc1ccc([N+](=O)[O-])cc1 [paraoxon]
- reduced activity at 250 μM [2]: pre-incubation with paraoxon led in all cases to a significantly reduced esterase activity
- reduced activity at 250 μM [3]: pre-incubation with paraoxon led in all cases to a significantly reduced esterase activity

Structure (SMILES): CCCC(=O)OCC(COC(=O)CCC)OC(=O)CCC [tributyrin]
- halo on indicator plate, double knockout expressing TM_1022 [4]: For both substrates, a time-dependent formation of a halo could be observed for this culture

Structure (SMILES): CCCCCC(=O)OCC(COC(=O)CCCCC)OC(=O)CCCCC [tricaproin]
- halo on indicator plate, double knockout expressing TM_1022 [4]: the halo for the tricaproin substrate was thereby slightly larger than for tributyrate
